Experimental data reported in patent publication US11780893B2, “Kv1.3 blockers” (Zealand Pharma A/S, priority 2019, dated 2023).
Read-outs that look alike come from different tables or passages of the source. Bridge positions count the residues as written; N and C are the ends. Square brackets hold non-standard residues; d marks the D form. Peptide text beside a SMILES is read from it. Nle = CCCC[C@H](N)C(=O)O

Legend:
Kv1.3 = molecular target: T1, Kv1.3 (Homo sapiens, UniProt P22001); experiment: cell-based; details: CHO cells, whole-cell patch clamp; read-out: Potency IC50 (nM) Kv1.3
T1 construct: expressed in transfected cells; host or cells: Chinese Hamster Ovary (CHO)
T1 sequence (P22001 whole entry): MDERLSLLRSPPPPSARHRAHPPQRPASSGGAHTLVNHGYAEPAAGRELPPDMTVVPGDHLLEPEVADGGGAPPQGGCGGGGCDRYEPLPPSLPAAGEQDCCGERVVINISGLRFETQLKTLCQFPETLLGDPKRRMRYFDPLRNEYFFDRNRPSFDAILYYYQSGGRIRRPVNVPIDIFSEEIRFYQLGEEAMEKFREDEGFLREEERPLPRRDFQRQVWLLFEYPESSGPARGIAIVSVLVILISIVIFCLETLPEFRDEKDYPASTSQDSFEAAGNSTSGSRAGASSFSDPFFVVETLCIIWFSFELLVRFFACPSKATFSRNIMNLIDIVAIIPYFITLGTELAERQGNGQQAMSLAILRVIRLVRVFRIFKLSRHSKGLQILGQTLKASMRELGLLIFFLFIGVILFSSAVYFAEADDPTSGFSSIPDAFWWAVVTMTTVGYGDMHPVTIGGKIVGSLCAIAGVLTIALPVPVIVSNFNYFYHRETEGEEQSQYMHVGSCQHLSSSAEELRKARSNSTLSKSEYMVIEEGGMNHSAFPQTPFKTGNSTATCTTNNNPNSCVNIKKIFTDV

Kv1.2 = molecular target: T2, Kv1.2 (Homo sapiens, UniProt P16389); experiment: cell-based; details: CHO cells, whole-cell patch clamp; read-out: Potency IC50 (nM) Kv1.2
T2 construct: expressed in transfected cells; host or cells: Chinese Hamster Ovary (CHO)
T2 sequence (P16389 whole entry): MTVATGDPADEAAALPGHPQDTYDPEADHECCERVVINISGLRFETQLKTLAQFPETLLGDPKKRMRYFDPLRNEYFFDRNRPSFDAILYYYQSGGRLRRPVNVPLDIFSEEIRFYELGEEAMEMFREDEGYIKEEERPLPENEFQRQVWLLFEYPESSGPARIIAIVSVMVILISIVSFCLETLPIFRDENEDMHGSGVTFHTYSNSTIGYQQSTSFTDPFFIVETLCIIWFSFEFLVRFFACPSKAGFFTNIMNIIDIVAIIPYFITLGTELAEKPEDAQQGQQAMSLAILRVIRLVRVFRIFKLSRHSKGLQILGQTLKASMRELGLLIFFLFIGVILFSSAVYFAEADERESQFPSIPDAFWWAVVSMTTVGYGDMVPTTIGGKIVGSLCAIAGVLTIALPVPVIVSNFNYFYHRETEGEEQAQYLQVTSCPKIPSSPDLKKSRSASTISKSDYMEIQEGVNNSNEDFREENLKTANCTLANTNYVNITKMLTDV

Kv1.6 = molecular target: T3, Kv1.6 (Homo sapiens, UniProt P17658); experiment: cell-based; details: for IC50: CHO cells, whole-cell patch clamp, read-out: Potency IC50 (nM) Kv1.6; for Selectivity Kv1.6/Kv1.3: ratio IC50[Kv1.6]/IC50[Kv1.3]
T3 construct: expressed in transfected cells; host or cells: Chinese Hamster Ovary (CHO)
T3 sequence (P17658 whole entry): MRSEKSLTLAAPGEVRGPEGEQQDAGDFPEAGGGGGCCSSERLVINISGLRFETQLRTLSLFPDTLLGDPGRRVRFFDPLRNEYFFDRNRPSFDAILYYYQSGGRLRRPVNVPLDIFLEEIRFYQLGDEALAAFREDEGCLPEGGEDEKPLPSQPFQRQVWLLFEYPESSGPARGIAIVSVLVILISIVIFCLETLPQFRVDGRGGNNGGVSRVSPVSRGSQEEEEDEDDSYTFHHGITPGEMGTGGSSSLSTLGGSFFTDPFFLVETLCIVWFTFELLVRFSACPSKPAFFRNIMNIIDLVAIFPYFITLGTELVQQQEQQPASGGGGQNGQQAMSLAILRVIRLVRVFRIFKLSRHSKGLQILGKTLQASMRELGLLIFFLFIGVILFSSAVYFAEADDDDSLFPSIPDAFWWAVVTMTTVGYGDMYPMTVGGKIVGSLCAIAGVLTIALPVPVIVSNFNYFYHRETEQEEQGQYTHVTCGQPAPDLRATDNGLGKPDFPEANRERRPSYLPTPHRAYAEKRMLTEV

[1] = molecular target: T4, human Kv1.3 voltage-gated K+ channel (Homo sapiens, UniProt P22001); experiment: cell-based; details: inhibition of thallium flux, CHO-DUKX cells with human Kv1.3; read-out: IC50
T4 construct: host or cells: CHO-DUKX
T4 sequence (P22001 whole entry): as the sequence (P22001 whole entry) above

Kv1.1 = molecular target: T5, Kv1.1 (Homo sapiens, UniProt Q09470); experiment: cell-based; details: for IC50: CHO cells, whole-cell patch clamp, read-out: Potency IC50 (nM) Kv1.1; for Selectivity Kv1.1/Kv1.3: ratio IC50[Kv1.1]/IC50[Kv1.3]
T5 construct: expressed in transfected cells; host or cells: Chinese Hamster Ovary (CHO)
T5 sequence (Q09470 whole entry): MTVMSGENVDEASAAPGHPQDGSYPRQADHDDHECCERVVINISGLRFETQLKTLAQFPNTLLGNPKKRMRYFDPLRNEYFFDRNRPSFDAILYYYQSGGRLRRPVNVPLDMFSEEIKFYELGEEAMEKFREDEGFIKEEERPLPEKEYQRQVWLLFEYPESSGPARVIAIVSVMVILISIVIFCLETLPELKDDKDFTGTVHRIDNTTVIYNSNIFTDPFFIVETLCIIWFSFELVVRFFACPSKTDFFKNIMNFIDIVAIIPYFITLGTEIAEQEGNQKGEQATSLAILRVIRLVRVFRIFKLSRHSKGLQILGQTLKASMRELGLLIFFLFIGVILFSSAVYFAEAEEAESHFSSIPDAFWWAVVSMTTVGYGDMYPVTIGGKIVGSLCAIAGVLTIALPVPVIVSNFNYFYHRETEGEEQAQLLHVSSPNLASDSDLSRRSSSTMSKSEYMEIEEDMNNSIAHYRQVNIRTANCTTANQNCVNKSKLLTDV

in vivo = details: male, rat, sc, 70 nmol/kg
Rat whole blood = Rat whole blood (Rattus norvegicus, UniProt P15384)
Chain of Rat whole blood (P15384 whole entry): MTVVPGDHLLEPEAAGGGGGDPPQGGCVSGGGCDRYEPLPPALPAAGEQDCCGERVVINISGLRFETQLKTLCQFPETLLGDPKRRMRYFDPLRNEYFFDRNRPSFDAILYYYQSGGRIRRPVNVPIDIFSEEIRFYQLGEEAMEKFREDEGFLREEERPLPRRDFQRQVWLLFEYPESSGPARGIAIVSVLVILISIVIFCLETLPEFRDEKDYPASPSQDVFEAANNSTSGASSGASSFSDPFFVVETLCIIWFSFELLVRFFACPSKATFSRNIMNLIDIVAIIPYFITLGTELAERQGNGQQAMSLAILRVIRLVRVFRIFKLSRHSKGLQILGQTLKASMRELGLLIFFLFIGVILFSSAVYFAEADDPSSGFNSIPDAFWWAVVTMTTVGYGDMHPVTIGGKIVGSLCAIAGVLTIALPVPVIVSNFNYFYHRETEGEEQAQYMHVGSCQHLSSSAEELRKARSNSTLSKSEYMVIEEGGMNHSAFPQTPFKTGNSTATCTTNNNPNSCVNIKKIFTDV

[2] = system: delayed-type hypersensitivity (DTH) ear swelling response; type: in vivo, rat; details: Kv1.3 blocker 100 nmol/kg SC 24 hrs prior to KLH challenge, CsA 10 mg/kg per os

Q: For CC[C@H](C)[C@@H]1NC(=O)[C@H](C)NC(=O)[C@H](CCCCN)NC(=O)[C@H](CC(C)C)NC(=O)[C@@H]2CSSC[C@@H](C(=O)N[C@@H](Cc3ccc(O)cc3)C(=O)N3CCC[C@H]3C(=O)N[C@@H](CCCNC(=N)N)C(=O)O)NC(=O)[C@H](CCCCN)NC(=O)[C@@H]3CSSC[C@H](NC(=O)[C@H](CCC(=O)O)NC(=O)[C@H](C(C)C)NC(=O)[C@H](CO)NC(=O)[C@H](C)NC(=O)[C@H](CO)NC(=O)[C@@H](NC(=O)[C@H](CCCNC(=N)N)NC(=O)[C@H](CCSC)NC(=O)[C@H](CC(=O)O)NC(=O)[C@@H](NC(=O)[C@@H](N)CC(N)=O)[C@@H](C)CC)CSSC[C@H](NC(=O)[C@H](CCCCN)NC(=O)CNC(=O)[C@H](Cc4ccccc4)NC(=O)[C@H]([C@@H](C)CC)NC(=O)[C@H](CO)NC(=O)CNC1=O)C(=O)N[C@@H](CCSC)C(=O)N[C@@H](CC(N)=O)C(=O)N[C@@H](CCCCN)C(=O)N[C@@H](CCCCN)C(=O)N3)C(=O)N[C@@H](CCCCN)C(=O)N[C@@H](CCC(N)=O)C(=O)N[C@@H](CCCCN)C(=O)N2 [Compound 8] (H-NIDMRCSASVECKQKCLKAIGSIFGKCMNKKCKCYPR-OH; disulfide 6-27, 12-32, 16-34), which IC50 (Kv1.3) is on record?
A: 0.44 nM

Q: What about the IC50 (Kv1.2) of the same compound?
A: 376 nM

Q: What about the IC50 (Kv1.6) of the same compound?
A: > 3000 nM

Q: And the “Selectivity Kv1.6/Kv1.3” value (Kv1.6)?
A: >6800

Q: And the IC50 [1]?
A: 0.47 nM

Q: What about the IC50 (Kv1.1) of the same compound?
A: > 3000 nM

Q: What about the “Selectivity Kv1.1/Kv1.3” value (Kv1.1) of the same compound?
A: >6800

Q: What about the AUC(0-inf) (in vivo) of the same compound?
A: 0.0983 µM·h

Q: What about the Cmax (in vivo) of the same compound?
A: 76.9 nM

Q: What about the half-life (in vivo) of the same compound?
A: 37.2 min

Q: For CC[C@H](C)[C@@H]1NC(=O)[C@H](C)NC(=O)[C@H](CCCCN)NC(=O)[C@H](CC(C)C)NC(=O)[C@@H]2CSSC[C@@H](C(=O)N[C@@H](Cc3ccc(O)cc3)C(=O)N3CCC[C@H]3C(=O)N[C@@H](CCCNC(=N)N)C(N)=O)NC(=O)[C@H](CCCCN)NC(=O)[C@@H]3CSSC[C@H](NC(=O)[C@H](CCC(=O)O)NC(=O)[C@H](C(C)C)NC(=O)[C@H](CO)NC(=O)[C@H](C)NC(=O)[C@H](CO)NC(=O)[C@@H](NC(=O)[C@H](CCCNC(=N)N)NC(=O)[C@H](CCSC)NC(=O)[C@H](CC(=O)O)NC(=O)[C@H](CCSC)NC(=O)[C@@H](N)CC(N)=O)CSSC[C@H](NC(=O)[C@H](CCCCN)NC(=O)CNC(=O)[C@H](Cc4ccccc4)NC(=O)[C@H]([C@@H](C)CC)NC(=O)[C@H](CO)NC(=O)CNC1=O)C(=O)N[C@@H](CCSC)C(=O)N[C@@H](CC(N)=O)C(=O)N[C@@H](CCCCN)C(=O)N[C@@H](CCCCN)C(=O)N3)C(=O)N[C@@H](C)C(=O)N[C@@H](CCC(N)=O)C(=O)N[C@@H](CCCCN)C(=O)N2 [Compound 30] (H-NMDMRCSASVECAQKCLKAIGSIFGKCMNKKCKCYPR-NH2; disulfide 6-27, 12-32, 16-34), which IC50 (Kv1.3) is on record?
A: 0.14 nM

Q: What about the IC50 (Kv1.2) of the same compound?
A: 666 nM

Q: And the IC50 (Kv1.6)?
A: > 3000 nM

Q: What about the “Selectivity Kv1.6/Kv1.3” value (Kv1.6) of the same compound?
A: >22000

Q: What about the IC50 [1] of the same compound?
A: 0.09 nM

Q: And the IC50 (Kv1.1)?
A: > 3000 nM

Q: And the “Selectivity Kv1.1/Kv1.3” value (Kv1.1)?
A: >22000

Q: What about the AUC(0-inf) (in vivo) of the same compound?
A: 0.0467 µM·h

Q: What about the Cmax (in vivo) of the same compound?
A: 33.3 nM

Q: What about the half-life (in vivo) of the same compound?
A: 44.4 min

Q: And the IC50 (Rat whole blood)?
A: ≤ 1 nM

Q: For CC[C@H](C)[C@@H]1NC(=O)[C@H](C)NC(=O)[C@H](Cc2ccc(O)cc2)NC(=O)[C@H](CC(C)C)NC(=O)[C@@H]2CSSC[C@@H](C(=O)N[C@@H](Cc3ccc(O)cc3)C(=O)N3CCC[C@H]3C(=O)N[C@@H](CCCNC(=N)N)C(N)=O)NC(=O)[C@H](CCCCN)NC(=O)[C@@H]3CSSC[C@H](NC(=O)[C@H](CCC(=O)O)NC(=O)[C@H](C(C)C)NC(=O)[C@H](CO)NC(=O)[C@H](C)NC(=O)[C@H](CO)NC(=O)[C@@H](NC(=O)[C@H](CCCNC(=N)N)NC(=O)[C@H](CCSC)NC(=O)[C@H](CC(=O)O)NC(=O)[C@H](CCSC)NC(=O)[C@@H](N)CC(N)=O)CSSC[C@H](NC(=O)[C@H](CCCCN)NC(=O)CNC(=O)[C@H](Cc4ccccc4)NC(=O)[C@H]([C@@H](C)CC)NC(=O)[C@H](CO)NC(=O)CNC1=O)C(=O)N[C@@H](CCSC)C(=O)N[C@@H](CC(N)=O)C(=O)N[C@@H](CCCCN)C(=O)N[C@@H](CCCCN)C(=O)N3)C(=O)N[C@@H](CCCCN)C(=O)N[C@@H](CCC(N)=O)C(=O)N[C@@H](CCCCN)C(=O)N2 [Compound 53] (H-NMDMRCSASVECKQKCLYAIGSIFGKCMNKKCKCYPR-NH2; disulfide 6-27, 12-32, 16-34), which IC50 (Kv1.3) is on record?
A: 0.29 nM

Q: What about the IC50 (Kv1.2) of the same compound?
A: 149 nM

Q: And the IC50 (Kv1.6)?
A: > 3000 nM

Q: What about the “Selectivity Kv1.6/Kv1.3” value (Kv1.6) of the same compound?
A: >10300

Q: And the IC50 [1]?
A: 0.12 nM

Q: And the IC50 (Kv1.1)?
A: > 3000 nM

Q: What about the “Selectivity Kv1.1/Kv1.3” value (Kv1.1) of the same compound?
A: >10300

Q: And the AUC(0-inf) (in vivo)?
A: 0.0311 µM·h

Q: What about the Cmax (in vivo) of the same compound?
A: 50 nM

Q: What about the half-life (in vivo) of the same compound?
A: 52.2 min

Q: With CCCC[C@@H]1NC(=O)[C@@H]2CSSC[C@H](NC(=O)[C@H](CCCNC(=N)N)NC(=O)[C@H](CCCC)NC(=O)[C@H](CC(=O)O)NC(=O)[C@@H](NC(=O)[C@@H](N)CC(N)=O)[C@@H](C)CC)C(=O)N[C@@H](CO)C(=O)N[C@@H](C)C(=O)N[C@@H](CO)C(=O)N[C@@H](C(C)C)C(=O)N[C@@H](CCC(=O)O)C(=O)N[C@H]3CSSC[C@H](NC(=O)[C@H](CCCCN)NC(=O)[C@H](CCCCN)NC(=O)[C@H](CC(N)=O)NC1=O)C(=O)N[C@@H](CCCCN)C(=O)N[C@H](C(=O)N[C@@H](Cc1ccc(O)cc1)C(=O)N1CCC[C@H]1C(=O)N[C@@H](CCCNC(=N)N)C(=O)O)CSSC[C@H](NC(=O)[C@H](CCCCN)NC(=O)[C@H](CCC(N)=O)NC(=O)[C@H](CCCCN)NC3=O)C(=O)N[C@@H](CC(C)C)C(=O)N[C@@H](CCCCN)C(=O)N[C@@H](C)C(=O)N[C@@H]([C@@H](C)CC)C(=O)NCC(=O)N[C@@H](CO)C(=O)N[C@@H]([C@@H](C)CC)C(=O)N[C@@H](Cc1ccccc1)C(=O)NCC(=O)N[C@@H](CCCCN)C(=O)N2 [Compound 95] (H-NID[Nle]RCSASVECKQKCLKAIGSIFGKC[Nle]NKKCKCYPR-OH; disulfide 6-27, 12-32, 16-34) as the compound, how does the “% inhibition of ear thickness (AUC of Δ ear thickness 0-48 hours)” value ([2]; Exp #5) read?
A: 39.6%

Q: And the IC50 (Kv1.3)?
A: 0.27 nM

Q: And the IC50 (Kv1.2)?
A: 2060 nM

Q: What about the IC50 (Kv1.6) of the same compound?
A: > 3000 nM

Q: And the “Selectivity Kv1.6/Kv1.3” value (Kv1.6)?
A: >11300

Q: And the IC50 [1]?
A: 0.16 nM

Q: And the IC50 (Kv1.1)?
A: > 3000 nM

Q: What about the “Selectivity Kv1.1/Kv1.3” value (Kv1.1) of the same compound?
A: >11300

Q: And the AUC(0-inf) (in vivo)?
A: 0.085 µM·h

Q: What about the Cmax (in vivo) of the same compound?
A: 46.5 nM

Q: What about the half-life (in vivo) of the same compound?
A: 65.4 min

Q: For CCCC[C@H](NC(=O)[C@@H]1CCCN1)C(=O)N[C@@H](CCC(=O)O)C(=O)N[C@@H](CCCC)C(=O)N[C@@H](CCCNC(=N)N)C(=O)N[C@H]1CSSC[C@@H]2NC(=O)[C@H](CCCCN)NC(=O)CNC(=O)[C@H](Cc3ccccc3)NC(=O)[C@H]([C@@H](C)CC)NC(=O)[C@H](CO)NC(=O)CNC(=O)[C@H]([C@@H](C)CC)NC(=O)[C@H](C)NC(=O)[C@H](C)NC(=O)[C@H](CC(C)C)NC(=O)[C@@H]3CSSC[C@@H](C(=O)N[C@@H](Cc4ccc(O)cc4)C(=O)N4CCC[C@H]4C(=O)N[C@@H](CCCNC(=N)N)C(=O)O)NC(=O)[C@H](CCCCN)NC(=O)[C@H](CSSC[C@H](NC(=O)[C@H](CCC(=O)O)NC(=O)[C@H](C(C)C)NC(=O)[C@H](CO)NC(=O)[C@H](C)NC(=O)[C@H](CO)NC1=O)C(=O)N[C@@H](C)C(=O)N[C@@H](CCC(N)=O)C(=O)N[C@@H](CCCCN)C(=O)N3)NC(=O)[C@H](CCCCN)NC(=O)[C@H](CCCCN)NC(=O)[C@H](CC(N)=O)NC(=O)[C@H](CCCC)NC2=O [Compound 103] (H-P[Nle]E[Nle]RCSASVECAQKCLAAIGSIFGKC[Nle]NKKCKCYPR-OH; disulfide 6-27, 12-32, 16-34), which “% inhibition of ear thickness (AUC of Δ ear thickness 0-48 hours)” value ([2]; Exp #7) is on record?
A: 48.9%

Q: What about the IC50 (Kv1.3) of the same compound?
A: 0.55 nM

Q: And the IC50 (Kv1.2)?
A: > 3000 nM

Q: What about the IC50 (Kv1.6) of the same compound?
A: > 3000 nM

Q: What about the “Selectivity Kv1.6/Kv1.3” value (Kv1.6) of the same compound?
A: >5500

Q: And the IC50 [1]?
A: 0.38 nM

Q: What about the IC50 (Kv1.1) of the same compound?
A: > 3000 nM

Q: What about the “Selectivity Kv1.1/Kv1.3” value (Kv1.1) of the same compound?
A: >5500

Q: What about the AUC(0-inf) (in vivo) of the same compound?
A: 0.177 µM·h

Q: And the Cmax (in vivo)?
A: 68.4 nM

Q: And the half-life (in vivo)?
A: 81.6 min
